Measured values reported in patent publication US7605265B2, “Heterodimers and methods of using them” (priority 2007, dated 2009).

What was measured:
[1] = target: T1, butyrylcholinesterase (BChE) (Rattus norvegicus, UniProt Q9JKC1); assay: biochemical
T1 construct: from tissue; host or cells: rat serum

[2] = target: T2, acetylcholinesterase (AChE) (Rattus norvegicus, UniProt P37136); assay: In vitro inhibition of AChE (cholinesterase assay, Ellman method); type: biochemical
T2 construct: from tissue; host or cells: rat brain cortex
T2 sequence (P37136 32-614): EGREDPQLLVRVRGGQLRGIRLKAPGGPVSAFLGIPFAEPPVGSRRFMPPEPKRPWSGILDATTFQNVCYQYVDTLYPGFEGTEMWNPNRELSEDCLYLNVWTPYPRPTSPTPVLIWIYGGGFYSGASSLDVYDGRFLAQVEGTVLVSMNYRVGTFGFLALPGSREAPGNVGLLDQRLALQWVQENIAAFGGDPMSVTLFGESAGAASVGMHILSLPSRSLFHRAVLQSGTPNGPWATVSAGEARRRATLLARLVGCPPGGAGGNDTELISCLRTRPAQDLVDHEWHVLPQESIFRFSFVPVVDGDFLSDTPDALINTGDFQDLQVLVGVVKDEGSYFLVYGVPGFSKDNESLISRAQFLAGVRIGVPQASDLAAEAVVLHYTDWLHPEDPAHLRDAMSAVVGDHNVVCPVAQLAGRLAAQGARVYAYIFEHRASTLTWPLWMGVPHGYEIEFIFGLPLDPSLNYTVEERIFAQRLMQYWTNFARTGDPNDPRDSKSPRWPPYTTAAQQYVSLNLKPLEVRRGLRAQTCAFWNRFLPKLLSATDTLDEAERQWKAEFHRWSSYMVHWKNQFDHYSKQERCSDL
Protocol: The in vitro inhibition of the enzymes acetylcholinesterase (AChE) and butyrylcholinesterase (BChE) were assessed. BChE, like AChE, breaks down acetylcholine (ACh) but is found in plasma and other organs such as the liver, skin and gastrointestinal tract.
The enzymes, AChE and BChE, used in the inhibition studies were prepared from the cortex and serum of decapitated rats, respectively.

[3] = system: scopolamine-induced memory impaired rats; assay: Morris water maze, scopolamine-induced memory impairment; type: in vivo, rat; details: tacrine 1.5 mg/kg, scopolamine 0.1 mg/kg i.p.
Protocol: The Morris water maze consists of a water pool with a hidden, submerged escape platform. The rats must learn, over a period of consecutive days, the location of the platform using either contextual or local cues. The time taken to locate the hidden platform (escape latency) is a measure of the animal's cognitive abilities.
(§1) Scopolamine (0.1 mg/kg) was first i.p. administered to young adult rats to impair their memories. Scopolamine-induced memory impaired rats were then orally administered one of three different doses of compound B (0.025, 0.050, or 0.100 mg/kg) and subjected to the Morris water maze over a period of 4 days. On each day, the time taken for the rats to detect the hidden platform in the water maze was measured, in seconds.
as §1, with “C (0.1, 0.2,” for “B (0.025, 0.050,”, “0.4” for “0.100”
as §1, with “A (0.1, 0.2,” for “B (0.025, 0.050,”, “0.4” for “0.100”
A spatial bias (% of total distance swum in the training quadrant during spatial probe trial) for the region of the apparatus where the platform was positioned during training was also measured for compounds B and C.
The spatial bias for the region of the testing apparatus where the hidden platform was positioned during training was measured. […] Tacrine (THA) was included for comparison purposes.

T1 sequence (Q9JKC1 24-597): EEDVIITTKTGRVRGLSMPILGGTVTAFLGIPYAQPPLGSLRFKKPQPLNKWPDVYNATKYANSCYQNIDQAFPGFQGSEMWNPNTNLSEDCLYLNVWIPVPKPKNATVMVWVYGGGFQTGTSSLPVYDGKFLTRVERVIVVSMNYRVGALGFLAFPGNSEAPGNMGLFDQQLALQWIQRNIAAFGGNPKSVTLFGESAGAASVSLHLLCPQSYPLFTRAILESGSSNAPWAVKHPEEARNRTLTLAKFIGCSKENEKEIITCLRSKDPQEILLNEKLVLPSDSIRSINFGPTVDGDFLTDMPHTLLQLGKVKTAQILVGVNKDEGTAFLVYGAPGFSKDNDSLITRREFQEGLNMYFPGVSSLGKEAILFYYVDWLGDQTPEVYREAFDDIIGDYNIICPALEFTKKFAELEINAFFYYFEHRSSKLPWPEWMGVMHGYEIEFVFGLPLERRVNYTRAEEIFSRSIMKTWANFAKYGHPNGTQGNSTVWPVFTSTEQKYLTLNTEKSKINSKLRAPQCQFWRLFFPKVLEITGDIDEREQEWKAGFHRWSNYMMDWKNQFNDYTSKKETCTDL

| SMILES | IC50 [1] [nM] | Selectivity AchE* ([2]; IC50 (BChE)/IC50 (AChE)) | IC50 ([2]; enzyme prepared from rat cortex) [nM] | escape latency, compared with the novel compound [3] |
| --- | --- | --- | --- | --- |
| O=c1ccc2c([nH]1)CCCC2NCCCCCCCCNc1c2c(nc3ccccc13)CCCC2 (stereo not shown) [Compound D] | 430 ± 46.7 | 31.52 | 13.6 ± 1.76 | – |
| Nc1c2c(nc3ccccc13)CCCC2 [Tacrine, reference compound] | – | – | – | less effective in shortening escape latency |
